Measured values as given in patent US9862761B2, “Composition and method for preventing or treating a tauopathy” (The Board of Trustees of the University of Illinois, priority 2009, dated 2018).
Read-outs that look alike come from different tables or passages of the source. Each block holds one compound with its values, some of them ahead of it. Square brackets hold non-standard residues; d marks the D form. Ends that are not written are not given here. pS = N[C@@H](COP(=O)(O)O)C(=O)O

Columns and labels:
[1] = test system: fast axonal transport (FAT) in isolated squid axoplasm; assay: Squid axoplasm motility assays (vesicle motility); assay type: cell-based, Loligo pealii; conditions: for prevention of 2-18 peptide-induced anterograde FAT inhibition: co-perfused with 2-18 peptide; for prevention of 2-18 peptide-induced anterograde FAT inhibition / prevention of 6D tau-mediated anterograde FAT inhibition: I-2 50 nM; for prevention of 6D tau-mediated anterograde FAT inhibition: co-perfused with 6D tau, okadaic acid 200 nM; for effect on FAT (axonal transport): perfused alone into squid axoplasm (tau 2 μM; ING-135 100 nM); for effect on anterograde FAT rates / effect on retrograde FAT rates: perfused into isolated squid axoplasm; for effect on anterograde FAT rates: 2 μM
[2] = test system: fast axonal transport (FAT) in isolated squid axoplasm; conditions: cited from earlier work
fyn kinase = molecular target: T1, fyn kinase (Homo sapiens, UniProt P06241); assay: In vitro phosphorylation of tau by fyn kinase; assay type: biochemical; conditions: compared to wild-type tau; 1 μM tau
T1 construct: purchased Millipore
T1 sequence (P06241 whole entry): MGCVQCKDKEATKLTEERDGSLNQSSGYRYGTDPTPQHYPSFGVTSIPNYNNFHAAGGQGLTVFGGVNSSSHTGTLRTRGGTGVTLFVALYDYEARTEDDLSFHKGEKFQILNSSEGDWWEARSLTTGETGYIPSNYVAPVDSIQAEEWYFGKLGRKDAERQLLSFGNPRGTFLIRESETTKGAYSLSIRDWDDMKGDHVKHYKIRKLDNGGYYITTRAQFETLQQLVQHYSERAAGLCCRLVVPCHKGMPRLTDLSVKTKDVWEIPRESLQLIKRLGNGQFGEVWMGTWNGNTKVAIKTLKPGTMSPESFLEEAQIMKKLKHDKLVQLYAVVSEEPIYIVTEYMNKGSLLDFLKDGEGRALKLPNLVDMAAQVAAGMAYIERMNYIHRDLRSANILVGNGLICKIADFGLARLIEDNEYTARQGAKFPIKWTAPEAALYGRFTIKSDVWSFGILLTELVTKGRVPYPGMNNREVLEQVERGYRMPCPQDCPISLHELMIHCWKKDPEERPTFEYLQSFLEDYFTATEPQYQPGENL
Procedure: Samples were heated to 60° C. for 5 minutes and separated on 10% acrylamide gels via SDS-PAGE. The proteins were transferred to nitrocellulose membranes, blocked in 2% non-fat dry milk Tris-buffered saline (NFDM-TBS; Tris 50 mM, NaCl 150 mM, pH 7.4). The membranes were incubated in primary antibodies (R1-1:300,000 and 9G3-1:8000) overnight at 4° C. The next day, the membranes were rinsed in TBS+0.1% TWEEN 20 and then incubated in the appropriate secondary antibody (1:5000; diluted in 2% NFDM-TBS). Immunoreactivity was visualized using ECL solution and the level of reactivity was quantified by measuring the optical density of immunoreactive bands with ImageJ software (v1.41, NIH). The average pixel intensities of the main tau bands were measured. Data are expressed as the ratio of 9G3 intensity to R1 intensity (error bars—s.e.m.).
Phosphorylation was carried out at 32° C. for […]. Samples were diluted 1:1 in 2× Laemmli buffer at 0, 10, 20, 40, and 60 minutes to stop the reaction. Samples were stored at −20° C. until used for immunoblotting.
Fyn kinase is a non-receptor tyrosine kinase known to phosphorylate tau at Tyr18 and phosphoTyrl8 (pTyr18) and is found in tau inclusions of AD brains (Lee, et al. (2004) supra). Phosphorylation at Tyr18 by fyn kinase prevents tau-mediated inhibition of anterograde FAT in squid axoplasm.

[3] = test system: kinesin-1 associated with vesicles; assay: Motor proteins on membrane vesicle fractions purified from squid axoplasms; conditions: 40 minutes incubation
[4] = Tau polymerization with arachidonic acid, electron microscopy; assay type: physicochemical; conditions: 4 μM tau, 75 μM arachidonic acid
Procedure: Tau polymerization was induced using AA according to known methods (King, et al. (1999) Biochemistry 38:14851-14859), except that KCl was substituted for NaCl in the polymerization buffer. […] Briefly, tau protein (4 μM) was incubated at room temperature in reaction buffer (50 mM HEPES, pH 7.6, 50 mM KCl, 5 mM DTT) in the presence of 75 μM AA (in ethanol vehicle). Samples of soluble tau were prepared for perfusion in the same manner, except that arachidonic acid was excluded from the polymerization buffer. Control mixtures containing AA but lacking tau were prepared in parallel. Final ethanol concentration in all samples was 3.8%.
Polymerization reactions were allowed to proceed for 6 hours, fixed with 2% glutaraldehyde, spotted onto 300 mesh formvar/carbon-coated copper grids (Electron Microscopy Sciences, Hatfield, Pa.), and negatively stained with 2% uranyl acetate (King, et al. (1999) supra). […]
To determine whether these domains are involved in FAT inhibition, two tau constructs were assayed, Δ2-18 and 1-421, containing deletions at the extreme amino- and carboxy-termini, respectively. […] Therefore, the formation of tau filaments under these experimental conditions was assessed by electron microscopic analysis.

[5] = test system: endogenous squid microtubules; assay: Microtubule-binding (sedimentation) assay; conditions: 5 μM tau construct, squid optic lobe cytosol
squid microtubules = assay: Microtubule morphology at axoplasm periphery after perfusion; assay type: cell-based; conditions: 2 μM perfused into axoplasm
Excerpt: Microtubule rigidity is increased when tau binds to the microtubule surface, and this effect is observable even at low, nonsaturating tau concentrations (Feigner, et al. (1997) J. Cell Biol. 138:1067-1075; Morfini, et al. (2007) supra). As an additional indicator of hTau40's ability to interact with squid microtubules, axoplasm was perfused with tau and the morphology of microtubules at the axoplasm periphery was examined.

PP2A = PP2A (Homo sapiens, UniProt P67775); conditions: even at micromolar concentrations; cited from earlier work
Sequence of PP2A (P67775 whole entry, the tested form may be a part): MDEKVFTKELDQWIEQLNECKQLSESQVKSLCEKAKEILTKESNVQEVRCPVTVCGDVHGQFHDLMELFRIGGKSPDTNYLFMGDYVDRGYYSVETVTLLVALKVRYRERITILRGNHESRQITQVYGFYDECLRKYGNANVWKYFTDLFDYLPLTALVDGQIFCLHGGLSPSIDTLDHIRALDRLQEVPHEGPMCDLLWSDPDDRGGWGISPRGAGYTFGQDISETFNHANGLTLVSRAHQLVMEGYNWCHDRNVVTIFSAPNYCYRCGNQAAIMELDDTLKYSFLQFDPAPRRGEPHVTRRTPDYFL

[6] = coperfused with hTau40 filaments (2 μM), SB203580 5 μM, CREBpp 0.5 mM, ING-135 100 nM, okadaic acid 100 nM, inhibitor-2 50 nM

Compound: Cn1cc(C2=C(c3coc4ccccc34)C(=O)NC2=O)c2cc(Br)ccc21 [ING-135, reference compound]
prevention of 2-18 peptide-induced anterograde FAT inhibition ([1]; ING-135 100 nM): completely prevented
prevention of 6D tau-mediated anterograde FAT inhibition ([1]; ING-135 100 nM): completely blocked
block of tau filament-induced inhibition of anterograde FAT [1, 6]: blocked
effect on FAT (axonal transport) [1]: had no effect

Compound: C[S+]([O-])c1ccc(-c2nc(-c3ccncc3)c(-c3ccc(F)cc3)[nH]2)cc1 (centres unmarked) [SB203580, reference compound]
block of tau filament-induced inhibition of anterograde FAT [1]: did not block

Compound: AEPRQEFEVMEDHAGTY [2-18 peptide]
effect on anterograde FAT rates [1]: induced a significant inhibition
effect on anterograde FAT rates ([1]; listed as PAD): inhibit

Compound: KRREILSRRPpSYR (KRREILSRRP[pS]YR) [CREBpp, reference compound]
block of effects of 1-421 tau filaments on FAT ([1]; coperfused with 1-421 tau filaments): also blocked
block of tau filament-induced inhibition of anterograde FAT [1, 6]: blocked
effect on FAT, perfused alone ([2]; CREBpp alone in squid axoplasm): has no effect

maximal level of phosphorylation at Tyr18 by fyn kinase (fyn kinase): lower
rate of phosphorylation at Tyr18 by fyn kinase (fyn kinase): slower
Compound: AT8 tau: tau with Ser199, Ser202, Thr205 mutated to glutamic acid, AT8 pseudophosphorylated mutant
effect on retrograde FAT rates [1]: unaffected
effect on anterograde FAT rates [1]: significantly reduced

Compound: active GSK-3β: recombinant, active GSK-3β from Sigma [reference compound]
levels of dynein intermediate chain on vesicles [3]: unaffected

Compound: C=C1[C@@H](O)[C@@H]2O[C@]3(CC[C@H](/C=C/[C@@H](C)[C@@H]4CC(C)=C[C@@]5(O[C@H](C[C@@](C)(O)C(=O)O)CC[C@H]5O)O4)O3)CC[C@H]2O[C@@H]1[C@@H](O)C[C@H](C)[C@H]1O[C@@]2(CCCCO2)CC[C@H]1C [okadaic acid, reference compound]
prevention of 6D tau-mediated anterograde FAT inhibition ([1]; ING-135 100 nM): abolished
prevention of 6P tau-mediated anterograde FAT inhibition ([1]; co-perfused with 6P tau): The same effect was noted
block of tau filament-induced inhibition of anterograde FAT [1, 6]: blocked
effect on FAT, perfused alone ([2]; okadaic acid alone, concentrations up to 1 μM): have no effect

Compound: monomeric hTau40: full-length tau, longest isoform in adult human brain, 441 amino acids, soluble monomer
filament formation under axoplasm perfusion buffer conditions [4]: form morphologically indistinguishable filaments
effect on FAT (axonal transport) ([1]; listed as full-length wild-type tau monomers): had no effect
effect on FAT (axonal transport) ([1]; listed as soluble tau): does not affect
effect on retrograde FAT rates [1]: no effect
effect on anterograde FAT rates [1]: no effect
sedimentation with taxol-assembled squid microtubules (supernatant vs pellet) [5]: depleted from the supernatant fraction and found in association with the microtubule-enriched pellet fraction
morphology of peripheral microtubules (squid microtubules): caused peripheral microtubules to acquire a straight, rigid appearance

sedimentation with taxol-assembled squid microtubules (supernatant vs pellet) [5]: remained in the supernatant fraction
Compound: K23: tau construct lacking both alternatively spliced N-terminal exons and all four MTBRs [reference compound]

Compound: inhibitor-2 [reference compound]
effect on PP2A (PP2A): has no effect
prevention of 2-18 peptide-induced anterograde FAT inhibition ([1]; ING-135 100 nM): completely prevented
prevention of 6D tau-mediated anterograde FAT inhibition ([1]; ING-135 100 nM): complete prevention
block of tau filament-induced inhibition of anterograde FAT [1, 6]: prevented FAT inhibition

Compound: hTau40 filaments: recombinant hTau40 polymerized into filaments with arachidonic acid
levels of dynein intermediate chain on vesicles [3]: unaffected
effect on FAT (axonal transport) [1]: inhibition
effect on retrograde FAT rates [1]: remained unaffected
effect on anterograde FAT rates [1]: inhibited
effect on anterograde FAT rates ([1]; listed as hTau40 F): significantly reduced
effect on anterograde FAT rates ([1]; listed as tau filaments): inhibit
morphology of peripheral microtubules (squid microtubules): did not produce changes in microtubule morphology
